“And” between values parts separate entries of the source, which are not always exact repeats. Equal entries are not always repeated. Where two headings read alike, the source gives them in different places. One block for each compound: values may come before it.
Key:
Set-up in all cases: host or cells: CHO cells, stably transfected
[1] = biological target: T1, M1 muscarinic receptor (Homo sapiens, UniProt P11229); test: [3H]NMS competition binding, M1 CHO membranes
T1 sequence (P11229 1-460): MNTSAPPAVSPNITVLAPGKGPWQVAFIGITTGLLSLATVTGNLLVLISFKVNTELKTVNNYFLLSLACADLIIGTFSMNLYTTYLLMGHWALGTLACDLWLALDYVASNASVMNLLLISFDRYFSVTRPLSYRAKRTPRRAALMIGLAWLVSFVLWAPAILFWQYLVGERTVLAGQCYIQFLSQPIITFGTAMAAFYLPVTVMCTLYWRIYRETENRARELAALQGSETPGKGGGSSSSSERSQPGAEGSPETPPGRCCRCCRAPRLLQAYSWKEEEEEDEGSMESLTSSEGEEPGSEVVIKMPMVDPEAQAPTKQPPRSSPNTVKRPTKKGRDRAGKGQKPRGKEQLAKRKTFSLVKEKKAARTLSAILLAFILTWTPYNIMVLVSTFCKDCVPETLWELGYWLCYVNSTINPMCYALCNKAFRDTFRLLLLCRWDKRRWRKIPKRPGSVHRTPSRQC

[2] = biological target: T2, M4 muscarinic receptor (Homo sapiens, UniProt P08173); test: [3H]NMS competition binding, M4 CHO membranes
T2 sequence (P08173 1-479): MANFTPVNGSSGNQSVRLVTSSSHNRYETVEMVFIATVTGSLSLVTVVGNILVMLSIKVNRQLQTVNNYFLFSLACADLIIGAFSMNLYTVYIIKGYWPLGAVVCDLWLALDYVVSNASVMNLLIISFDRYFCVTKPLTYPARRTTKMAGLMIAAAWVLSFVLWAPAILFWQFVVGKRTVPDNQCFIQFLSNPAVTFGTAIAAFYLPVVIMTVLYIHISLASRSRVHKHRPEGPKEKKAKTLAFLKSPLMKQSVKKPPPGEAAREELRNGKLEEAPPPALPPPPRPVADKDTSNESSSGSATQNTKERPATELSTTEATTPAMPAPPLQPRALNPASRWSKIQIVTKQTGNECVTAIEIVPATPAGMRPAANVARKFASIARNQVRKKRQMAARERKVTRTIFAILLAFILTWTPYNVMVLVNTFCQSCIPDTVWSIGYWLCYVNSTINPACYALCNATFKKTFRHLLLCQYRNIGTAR

[3] = biological target: T3, M5 muscarinic receptor (Homo sapiens, UniProt P08912); test: [3H]NMS competition binding, M5 CHO membranes
T3 sequence (P08912 1-532): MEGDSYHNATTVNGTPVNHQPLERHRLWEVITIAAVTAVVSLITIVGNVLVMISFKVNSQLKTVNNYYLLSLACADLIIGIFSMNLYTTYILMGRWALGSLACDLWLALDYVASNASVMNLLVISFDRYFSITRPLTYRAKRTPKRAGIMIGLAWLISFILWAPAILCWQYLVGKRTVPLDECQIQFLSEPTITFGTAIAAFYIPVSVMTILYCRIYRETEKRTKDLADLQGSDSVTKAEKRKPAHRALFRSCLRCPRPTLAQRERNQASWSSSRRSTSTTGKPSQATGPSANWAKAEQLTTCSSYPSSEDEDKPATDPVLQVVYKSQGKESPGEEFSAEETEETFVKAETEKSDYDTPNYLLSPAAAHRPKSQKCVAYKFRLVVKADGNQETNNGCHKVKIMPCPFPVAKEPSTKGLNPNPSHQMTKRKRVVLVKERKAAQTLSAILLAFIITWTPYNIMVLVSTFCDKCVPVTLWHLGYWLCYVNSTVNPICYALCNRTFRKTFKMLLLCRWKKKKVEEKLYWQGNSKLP

[4] = biological target: T1, M1 muscarinic receptor; test: accumulation of inositol phosphates IPX, M1 CHO cells (M1Gq); type: cell-based
[5] = biological target: T4, M2 muscarinic receptor (Homo sapiens, UniProt P08172); test: inhibition of forskolin-stimulated cAMP, M2 CHO cells (M2Gi); type: cell-based
T4 sequence (P08172 1-466): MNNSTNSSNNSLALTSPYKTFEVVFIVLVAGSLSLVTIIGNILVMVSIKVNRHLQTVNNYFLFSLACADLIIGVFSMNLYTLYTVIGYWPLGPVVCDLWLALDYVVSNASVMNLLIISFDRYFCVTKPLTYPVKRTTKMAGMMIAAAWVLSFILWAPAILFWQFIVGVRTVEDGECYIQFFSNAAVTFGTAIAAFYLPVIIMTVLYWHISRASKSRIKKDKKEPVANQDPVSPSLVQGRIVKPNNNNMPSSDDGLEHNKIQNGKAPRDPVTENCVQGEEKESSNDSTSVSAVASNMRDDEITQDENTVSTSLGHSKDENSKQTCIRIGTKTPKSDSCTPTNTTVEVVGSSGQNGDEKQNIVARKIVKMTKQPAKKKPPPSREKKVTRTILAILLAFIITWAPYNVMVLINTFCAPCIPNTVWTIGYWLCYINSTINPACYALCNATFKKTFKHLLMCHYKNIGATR

[6] = biological target: M3 muscarinic receptor (Homo sapiens, UniProt P20309); test: accumulation of IPX, M3 CHO cells (M3Gq); type: cell-based
M3 muscarinic receptor, sequence (P20309 whole entry): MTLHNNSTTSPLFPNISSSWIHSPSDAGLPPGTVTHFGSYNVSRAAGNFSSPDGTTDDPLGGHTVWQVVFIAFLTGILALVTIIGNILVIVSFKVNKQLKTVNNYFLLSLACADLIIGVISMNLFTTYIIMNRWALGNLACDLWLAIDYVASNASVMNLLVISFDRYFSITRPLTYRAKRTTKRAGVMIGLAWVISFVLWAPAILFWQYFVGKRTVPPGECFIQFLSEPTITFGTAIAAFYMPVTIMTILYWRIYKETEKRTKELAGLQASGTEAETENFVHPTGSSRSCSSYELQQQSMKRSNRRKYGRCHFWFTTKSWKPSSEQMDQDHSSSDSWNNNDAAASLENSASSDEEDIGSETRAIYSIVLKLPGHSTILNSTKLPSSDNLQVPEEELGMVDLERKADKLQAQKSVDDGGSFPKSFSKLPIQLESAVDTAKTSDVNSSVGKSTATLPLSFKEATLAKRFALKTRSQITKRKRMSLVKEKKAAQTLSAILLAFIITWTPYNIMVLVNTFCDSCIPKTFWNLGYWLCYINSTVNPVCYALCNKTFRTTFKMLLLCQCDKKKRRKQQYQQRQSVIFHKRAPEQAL

[7] = M2 (↓cAMP), preferential response, Table 7, operational efficacy
[8] = M2 (↓cAMP), preferential response, relative to carbachol, Tables 2, 3, 7
[9] = M2 (↓cAMP), preferential response, to carbachol, Tables 2, 3, 7

Ki ([1]; competition with 1 nM [3H]NMS, read-out: Inhibition constants (Ki) as negative logarithms, M1 (converted)): 3980 nM
Ki ([2]; competition with 1 nM [3H]NMS, read-out: Inhibition constants (Ki) as negative logarithms, M4 (converted)): 4370 nM
binding that occurred with high affinity ([2]; fraction of binding to M4): ~10%
Ki ([2]; high-affinity fraction of binding to M4, read-out: high affinity binding): ~30 nM
Ki ([3]; competition with 1 nM [3H]NMS, read-out: Inhibition constants (Ki) as negative logarithms, M5 (converted)): 3390 nM
E′MAX ([4]; M1 (↑IPX), preferential response, Table 7): 3.9 ± 0.4 fold over basal
τ ([4]; M1 (↑IPX), preferential response, Table 7, operational efficacy): 0.09 ± 0.01
Kd ([4]; M1 (↑IPX), preferential response, Table 7, operational model, read-out: pKA (converted)): 5010 nM
EC50 ([4]; M1 (↑IPX), preferential response, Table 7, read-out: pEC50 (converted)): 5010 nM
RAi ([4]; M1 (↑IPX), preferential response, relative to carbachol, Tables 2, 3, 7): 0.0058 ± 0.0007
Δlog(τ/KA) ([4]; M1 (↑IPX), preferential response, to carbachol, Tables 2, 3, 7): 2.24 ± 0.18
Emax ([5]; CHO, M2 (↓cAMP), preferential response, Table 7, read-out: E′MAX): 36 ± 1%
τ [5, 7]: 0.69 ± 0.07
Kd ([5]; M2 (↓cAMP), preferential response, Table 7, operational model, read-out: pKA (converted)): 1580 nM
EC50 ([5]; M2 (↓cAMP), preferential response, Table 7, read-out: pEC50 (converted)): 933 nM
RAi [5, 8]: 0.029 ± 0.002
Δlog(τ/KA) [5, 9]: 1.48 ± 0.15
E′MAX ([6]; M3 (↑IPX), preferential response, Table 7): 4.4 ± 0.4 fold over basal
τ ([6]; M3 (↑IPX), preferential response, Table 7, operational efficacy): 0.14 ± 0.01
Kd ([6]; M3 (↑IPX), preferential response, Table 7, operational model, read-out: pKA (converted)): 5010 nM
EC50 ([6]; M3 (↑IPX), preferential response, Table 7, read-out: pEC50 (converted)): 8.32 µM
RAi ([6]; M3 (↑IPX), preferential response, relative to carbachol, Tables 2, 3, 7): 0.0077 ± 0.0008
Δlog(τ/KA) ([6]; M3 (↑IPX), preferential response, to carbachol, Tables 2, 3, 7): 2.11 ± 0.12
Compound: Cc1ccc(C[N+]2(C)CC=CCC2)s1.[I-] (stereo not shown) [Compound 7B, 1-methyl-1-[(5-methylthiophen-2-yl)methyl]-1,2,3,6-tetrahydropyridin-1-ium iodide]

Compound: O=C1CCCN1CC#CCN1CCCC1 [oxotremorine, reference compound]
Ki ([1]; Inhibition constants (KI) as negative logarithms, M1, high site): 7.94 nM
Ki ([1]; Inhibition constants (KI) as negative logarithms, M1, low site): 372 nM
Ki ([2]; Inhibition constants (KI) as negative logarithms, M4, high site, reference agonists, high affinity site): 12.6 nM
Ki ([2]; Inhibition constants (KI) as negative logarithms, M4, low site, reference agonists, low affinity site): 617 nM
Ki ([3]; Inhibition constants (KI) as negative logarithms, M5, high site, reference agonists, high affinity site): 12.6 nM
Ki ([3]; Inhibition constants (KI) as negative logarithms, M5, low site, reference agonists, low affinity site): 537 nM
Kd [4]: 200 nM
RAi [4]: 3.71 ± 0.29 and 3.84 ± 0.28
pKA [4]: 6.7 ± 0.1
Δlog(τ/KA) [4]: −0.57 ± 0.06 and −0.58 ± 0.05
τ [4]: 2.55 ± 0.25 and 2.6 ± 0.3
EC50 ([4]; pEC50): 52.5 nM and 55 nM
EC50 [5]: 5.75 nM
Kd [5]: 12.6 nM
E′MAX ([5]; M2 (↓cAMP), preferential response, Table 7): 43 ± 1 % inhibition
τ [5, 7]: 0.96 ± 0.08
RAi [5, 8]: 6.34 ± 0.15
Δlog(τ/KA) [5, 9]: −0.81 ± 0.01
E′MAX ([5]; M2Gi (↓cAMP), Table 8): 43 ± 1 % inhibition
pEC50 ([5]; M2Gi (↓cAMP), Table 8): 8.24 ± 0.04
pKA ([5]; M2Gi (↓cAMP), Table 8): 7.9 ± 0.1
τ ([5]; M2Gi (↓cAMP), Table 8): 1.0 ± 0.1
RAi ([5]; M2Gi (↓cAMP), Table 8, relative to carbachol): 6.34 ± 0.15
Δlog(τ/KA) ([5]; M2Gi (↓cAMP), Table 8, to carbachol): −0.81 ± 0.01
EC50 [6]: 0.0955 µM
E′MAX [6]: 22 ± 2 fold over basal
Kd [6]: 398 nM
RAi [6]: 4.14 ± 0.38 and 4.14 ± 0.41
pEC50 [6]: 7.02 ± 0.04
pKA [6]: 6.4 ± 0.1
Δlog(τ/KA) [6]: −0.62 ± 0.06
τ [6]: 2.97 ± 0.30 and 3.0 ± 0.3
